In patent publication US20030032791A1, “Novel melanocortin-4 receptor sequences and screening assays to identify compounds useful in regulating animal appetite and metabolic rate” (priority 2000, published 2003):
Where two headings read alike, the source gives them in different places. Marks after values point to notes of the source that are not given here. One block for each compound: values may come before it. Residues, ends and D or L forms follow the SMILES beside them.

Tests used:
[1] = biological target: T1, hMC4R (Homo sapiens, UniProt P32245); test: hMC4R; parameters: expressed in transfected cells; host or cells: HEK293
Target sequence in this assay (P32245 whole entry, looked up): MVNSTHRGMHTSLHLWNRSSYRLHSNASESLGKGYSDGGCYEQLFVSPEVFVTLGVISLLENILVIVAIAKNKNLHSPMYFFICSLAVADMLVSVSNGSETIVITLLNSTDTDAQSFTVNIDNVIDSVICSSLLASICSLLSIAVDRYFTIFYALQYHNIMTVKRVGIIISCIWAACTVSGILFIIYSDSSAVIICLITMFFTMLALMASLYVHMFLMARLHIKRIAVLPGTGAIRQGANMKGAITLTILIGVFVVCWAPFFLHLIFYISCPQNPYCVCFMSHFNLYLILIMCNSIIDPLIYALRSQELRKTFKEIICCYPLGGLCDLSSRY

[2] = biological target: T1, hMC4R
Target sequence in this assay (P32245 whole entry): as the sequence (P32245 whole entry, looked up) above

[3] = test system: cMC4R; test: cMC4R
[4] = biological target: T2, hMC3R (Homo sapiens, UniProt P41968)
Target sequence in this assay (P41968 whole entry): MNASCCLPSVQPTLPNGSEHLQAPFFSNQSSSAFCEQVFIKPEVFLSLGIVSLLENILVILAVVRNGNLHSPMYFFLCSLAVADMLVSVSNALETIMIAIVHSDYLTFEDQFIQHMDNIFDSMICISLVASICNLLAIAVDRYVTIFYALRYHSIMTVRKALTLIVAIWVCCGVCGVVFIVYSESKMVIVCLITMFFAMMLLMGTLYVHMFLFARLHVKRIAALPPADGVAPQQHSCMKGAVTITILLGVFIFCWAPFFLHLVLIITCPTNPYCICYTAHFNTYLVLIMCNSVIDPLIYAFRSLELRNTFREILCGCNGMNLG

[5] = biological target: T2, hMC3R; test: hMC3R; parameters: expressed in transfected cells; host or cells: HEK293
Target sequence in this assay (P41968 whole entry, looked up): as the sequence (P41968 whole entry) above

[6] = biological target: canine MC4R (canine)
[7] = biological target: T2, hMC3R; remark: listed apart in the source
Target sequence in this assay (P41968 whole entry): as above

[8] = test system: cMC4R; test: FLIPR calcium release assay in HEK293a/cMC4R/Gα15, Gα16 cells; conditions: read-out: EC50, agonist stimulated calcium release; HEK293a/cMC4R/Gα15, Gα16, Fluo-4
[9] = biological target: canine MC4R (canine); test: cell-based or functional assay
[10] = test system: Obese Beagle Dogs; test: 24 hr food intake following ICV injection in lateral ventricle cannulated dogs; format: in vivo, dog; conditions: NDP-MSH 100 nmol
Description: (§1) Healthy, (1-3 years of age) male and female beagles (Marshall Farms, North Rose N.Y.) weighing 11-15 kg were employed as test subjects. The animals were surgically implanted with lateral ventricle cannulas using standard techniques. Wilsson-Rahmberg et al., 1998, J. Investigative Surgery, 11:207-214. Cannula placement and patency were confirmed with fluoroscopy. The dogs were housed individually in standard caging meeting or exceeding the USDA regulations (U.S. Department of Agriculture, Animal Welfare, Final Rules. 9 C.F.R. Parts 1-3,1995).
Each subject received a single 50 μl injection in one lateral ventricle (ICV injection) of one of 3 solutions: 30-100 nmol of the non-specific melanocortin (MC) receptor agonist [N1 e^4, D-Phe^7]-α-MSH (hereinafter “NDP-MSH,” Bachem Bioscience Inc., King of Prussia Pa.), 1-2 nmol of the MC3/4 receptor antagonist SHU-9119 (Bachem Bioscience Inc., King of Prussia, Pa.) or vehicle which consisted of artificial cerebrospinal fluid (hereinafter “aCSF,” Harvard Apparatus, Holliston, Mass.). […] Following ICV injection, resulting effects on food intake or metabolic rate were determined.
The studies consisted of one group of animals containing five dogs. […] Resulting effects on food intake were determined. […] Resulting effects on food intake were determined. […] Resulting effects on metabolic rate were determined. […] Resulting effects on metabolic rate were determined. […]

[11] = test system: Obese Beagle Dogs; test: Indirect calorimetry following ICV injection in lateral ventricle cannulated dogs; format: in vivo, dog; conditions: NDP-MSH 75 mol
Description: as §1
Each subject received a single 50 μl injection in one lateral ventricle (ICV injection) of one of 3 solutions: 30-100 nmol of the non-specific melanocortin (MC) receptor agonist [N1 e^4, D-Phe^7]-α-MSH (hereinafter “NDP-MSH,” Bachem Bioscience Inc., King of Prussia Pa.), 1-2 nmol of the MC3/4 receptor antagonist SHU-9119 (Bachem Bioscience Inc., King of Prussia, Pa.) or vehicle which consisted of artificial cerebrospinal fluid (hereinafter “aCSF,” Harvard Apparatus, Holliston, Mass.). NDP-MSH and SHU-9119 were received as a dry powder and were reconstituted with aCSF to achieve an appropriate concentration for a ^50 μl injection. Following ICV injection, resulting effects on food intake or metabolic rate were determined.
The studies consisted of one group of animals containing five dogs. In study 1, dogs received either NDP-MSH or aCSF on day 0 in a cross-over design with two dogs receiving NDP-MSH first and three dogs receiving aCSF first. Resulting effects on food intake were determined. In study 2, dogs received either SHU-9119 or aCSF on day 0 in a cross-over design with two dogs receiving SHU-9119 first and three dogs receiving aCSF first. Resulting effects on food intake were determined. In study 3, dogs received either NDP-MSH or aCSF on day 0 in a cross-over design with three dogs receiving NDP-MSH first and two dogs receiving aCSF first. Resulting effects on metabolic rate were determined. In study 4, dogs received either SHU-9119 or aCSF on day 0 in a cross-over design with three dogs receiving SHU-9119 first and two dogs receiving aCSF first. Resulting effects on metabolic rate were determined. Each test animal was permitted ad libitum access to water and IAMS […]® (The IAMS Company, Dayton Ohio) dry food each day during the study unless otherwise noted.
Reduction or increase in metabolic rate was measured by standard indirect calorimetry using an open circuit calorimeter (OXYMAX DELUXE@, Columbus Instruments, Columbus Ohio). Dogs were fasted for approximately 18 hours prior to ICV injection. Calorimetry sessions were initiated approximately 2 hours after ICV injection and lasted for 60-90 minutes.

[12] = biological target: T1, hMC4R; remark: listed apart in the source
Target sequence in this assay (P32245 whole entry): as the sequence (P32245 whole entry, looked up) above

[13] = biological target: canine MC4R (Canis lupus familiaris, UniProt A0A2Z6BEC9); conditions: 1 pM α-MSH
[14] = versus aCSF control, SHU 9119 2 nmol ICV
[15] = ICV injection, SHU 9119 2 nmol, about 2 hours after injection, fasted dogs

Sequence of canine MC4R (canine) (Q0Z8I9 other isoform, or with tags, fused parts or gaps): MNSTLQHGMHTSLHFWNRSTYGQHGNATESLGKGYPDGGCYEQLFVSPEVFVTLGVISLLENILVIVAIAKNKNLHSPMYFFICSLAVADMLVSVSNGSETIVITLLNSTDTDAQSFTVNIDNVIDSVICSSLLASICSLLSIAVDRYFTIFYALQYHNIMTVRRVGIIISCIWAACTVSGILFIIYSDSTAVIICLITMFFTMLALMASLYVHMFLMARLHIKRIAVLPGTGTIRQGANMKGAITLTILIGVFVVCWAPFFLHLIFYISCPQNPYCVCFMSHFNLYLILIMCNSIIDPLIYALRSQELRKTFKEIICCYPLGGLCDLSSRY
Sequence of canine MC4R (A0A2Z6BEC9 1-332): as the sequence (Q0Z8I9 other isoform, or with tags, fused parts or gaps) above

Compound: N=C(N)NCCC[C@@H]1NC(=O)[C@@H](Cc2ccc3ccccc3c2)NC(=O)[C@H](Cc2c[nH]cn2)NC(=O)[C@H](CCC(=O)O)NC(=O)CCSSC[C@@H](C(=O)N2CCC[C@H]2C(=O)N2CCC[C@H]2C(=O)N[C@@H](CCCCN)C(=O)N[C@@H](CC(=O)O)C(N)=O)NC(=O)CNC(=O)[C@H](Cc2c[nH]c3ccccc23)NC1=O [JKC363] (HELM PEPTIDE1{[O=C(CCS[*:3])[*:2]].E.H.[O=C([C@@H](Cc1ccc2ccccc2c1)N[*:1])[*:2]].R.W.G.C.P.P.K.D.[am]}$PEPTIDE1,PEPTIDE1,1:R3-8:R3$$$V2.0; C-terminus assumed)
IC50 [1]: 1.31 nM
IC50 [2]: 2.11 nM
IC50 [3]: 0.971 nM
IC50 [4]: 22.7 nM
IC50 [5]: 15.1 nM

Compound: MTII
EC50 [8]: 10 nM

Compound: SHU9119
24 hr Food Intake, Average ([10]; ICV injection, SHU 9119 2 nmol): 366 g
24 hr Food Intake, % Change [10, 14]: +132* %
Heat Produced, Average [11, 15]: 13 kcal/h
VO2, Average [11, 15]: 3.6 mL/min/kg
Heat Produced, % Change [11, 14]: −37* %
VO2, % Change [11, 14]: −38* %

Compound: SHU9119 (peptide)
IC50, antagonist inhibition of calcium release in the presence of 20 nM NDP-MSH agonist (FLIPR) [9]: 2 nM
IC50 [12]: 0.0116 nM
IC50 [7]: 0.188 nM

Second part, the compound after the results:

IC50 [6]: 1.27 nM
IC50 [7]: 22.8 nM
Compound: JKC363 (peptide)

EC50, agonist stimulated calcium release (FLIPR, HEK293a/cMC4R/Gα15, Gα16 cells) [9]: 10 nM
IC50 [6]: 0.877 nM
Compound: MTII (peptide)

concentration of cAMP ([13]; 30 minutes, most concentrated batch of cells (1.5×10^6 cells/ml)): 13.82 pmol/mL
cAMP levels over background ([13]; cells at each concentration (0.5, 1.0, 1.5×10^6 cells/ml)): significant increase
difference in cAMP versus negative control cells ([13]; most concentrated batch of cells): almost ten-fold
EC50 [8]: 55 nM
Compound: α-MSH

EC50, agonist stimulated calcium release (FLIPR, HEK293a/cMC4R/Gα15, Gα16 cells) [9]: 55 nM
cAMP, fold over negative control cells [9]: 10 fold
concentration of cAMP in α-MSH treated cells (1.5×10^6 cells/ml) [9]: 13.8 pmol/mL
Compound: α-MSH (from UniProt P01189 138-150) (peptide)
